# From ChEMBL document CHEMBL4507276 (2021)
# Tests used:
# [1] = target: Myosin light chain kinase family member 4 (Homo sapiens) (UniProt Q86YV6); settings: Compound concentration 1000.0 nM
# [2] = target: Serine/threonine-protein kinase PAK 3 (Homo sapiens) (UniProt O75914); settings: Compound concentration 1000.0 nM
# [3] = target: Epithelial discoidin domain-containing receptor 1 (Homo sapiens) (UniProt Q08345); settings: Compound concentration 1000.0 nM
# [4] = target: Sodium-dependent serotonin transporter (Homo sapiens) (UniProt P31645); settings: Compound concentration 10.0 uM
# [5] = target: Cyclin-dependent kinase 9 (Homo sapiens) (UniProt P50750); settings: Compound concentration 1000.0 nM
# [6] = target: D(3) dopamine receptor (Homo sapiens) (UniProt P35462); settings: Compound concentration 10.0 uM
# [7] = target: Serine/threonine-protein kinase ULK1 (Homo sapiens) (UniProt O75385); settings: Compound concentration 1000.0 nM
# [8] = tested on: Epidermal growth factor receptor (Homo sapiens), P00533 [UNDEFINED MUTATION]; settings: Compound concentration 1000.0 nM
# Epidermal growth factor receptor (Homo sapiens), P00533 [UNDEFINED MUTATION], sequence (P00533 whole entry, looked up, change not shown): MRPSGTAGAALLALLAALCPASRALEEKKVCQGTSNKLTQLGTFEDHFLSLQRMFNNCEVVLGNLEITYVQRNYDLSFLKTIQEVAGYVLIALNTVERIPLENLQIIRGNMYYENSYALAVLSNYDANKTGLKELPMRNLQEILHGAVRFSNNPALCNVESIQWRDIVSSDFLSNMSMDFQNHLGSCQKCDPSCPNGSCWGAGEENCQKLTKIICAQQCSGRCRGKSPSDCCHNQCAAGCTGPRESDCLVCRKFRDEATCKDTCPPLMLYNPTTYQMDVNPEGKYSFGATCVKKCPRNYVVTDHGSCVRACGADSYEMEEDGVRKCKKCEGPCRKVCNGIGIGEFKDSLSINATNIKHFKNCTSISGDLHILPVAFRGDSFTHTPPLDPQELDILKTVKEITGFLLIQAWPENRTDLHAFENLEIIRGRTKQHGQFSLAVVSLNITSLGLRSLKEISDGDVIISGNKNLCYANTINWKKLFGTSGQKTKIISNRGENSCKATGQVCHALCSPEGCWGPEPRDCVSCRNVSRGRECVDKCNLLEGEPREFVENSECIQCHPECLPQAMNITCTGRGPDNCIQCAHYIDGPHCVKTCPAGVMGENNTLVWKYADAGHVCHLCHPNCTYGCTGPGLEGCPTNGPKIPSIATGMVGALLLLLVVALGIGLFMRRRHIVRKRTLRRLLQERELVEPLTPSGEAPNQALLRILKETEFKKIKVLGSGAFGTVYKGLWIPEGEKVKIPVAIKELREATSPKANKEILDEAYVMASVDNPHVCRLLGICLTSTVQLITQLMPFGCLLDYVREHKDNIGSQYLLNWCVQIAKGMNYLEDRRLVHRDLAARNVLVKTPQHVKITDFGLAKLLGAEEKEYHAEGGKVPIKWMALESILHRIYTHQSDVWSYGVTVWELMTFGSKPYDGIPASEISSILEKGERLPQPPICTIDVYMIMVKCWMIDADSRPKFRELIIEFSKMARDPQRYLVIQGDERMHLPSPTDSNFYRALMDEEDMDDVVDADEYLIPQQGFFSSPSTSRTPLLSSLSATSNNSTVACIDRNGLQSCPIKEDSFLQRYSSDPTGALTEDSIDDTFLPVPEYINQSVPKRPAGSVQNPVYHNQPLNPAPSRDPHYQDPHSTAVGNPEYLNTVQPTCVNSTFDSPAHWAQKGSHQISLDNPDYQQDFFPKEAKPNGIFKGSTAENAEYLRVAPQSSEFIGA
# [9] = target: Serine/threonine-protein kinase PLK3 (Homo sapiens) (UniProt Q9H4B4); settings: Compound concentration 1000.0 nM
# [10] = target: T1, Mitogen-activated protein kinase 12 (Homo sapiens) (UniProt P53778); settings: Compound concentration 1000.0 nM
# T1 sequence (whole entry): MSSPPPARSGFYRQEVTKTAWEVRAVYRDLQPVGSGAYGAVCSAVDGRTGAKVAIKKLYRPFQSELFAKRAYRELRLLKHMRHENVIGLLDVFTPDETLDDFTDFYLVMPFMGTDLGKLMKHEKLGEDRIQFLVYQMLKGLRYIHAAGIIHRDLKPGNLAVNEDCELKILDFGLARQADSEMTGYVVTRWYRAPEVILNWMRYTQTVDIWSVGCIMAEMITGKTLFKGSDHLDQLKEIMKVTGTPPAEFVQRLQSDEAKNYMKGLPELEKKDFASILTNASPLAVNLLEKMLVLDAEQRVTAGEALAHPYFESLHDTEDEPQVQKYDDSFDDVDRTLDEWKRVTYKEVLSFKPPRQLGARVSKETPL
# [11] = target: Ribosomal protein S6 kinase alpha-3 (Homo sapiens) (UniProt P51812); settings: Compound concentration 1000.0 nM
# Ribosomal protein S6 kinase alpha-3 (Homo sapiens), sequence (P51812 whole entry): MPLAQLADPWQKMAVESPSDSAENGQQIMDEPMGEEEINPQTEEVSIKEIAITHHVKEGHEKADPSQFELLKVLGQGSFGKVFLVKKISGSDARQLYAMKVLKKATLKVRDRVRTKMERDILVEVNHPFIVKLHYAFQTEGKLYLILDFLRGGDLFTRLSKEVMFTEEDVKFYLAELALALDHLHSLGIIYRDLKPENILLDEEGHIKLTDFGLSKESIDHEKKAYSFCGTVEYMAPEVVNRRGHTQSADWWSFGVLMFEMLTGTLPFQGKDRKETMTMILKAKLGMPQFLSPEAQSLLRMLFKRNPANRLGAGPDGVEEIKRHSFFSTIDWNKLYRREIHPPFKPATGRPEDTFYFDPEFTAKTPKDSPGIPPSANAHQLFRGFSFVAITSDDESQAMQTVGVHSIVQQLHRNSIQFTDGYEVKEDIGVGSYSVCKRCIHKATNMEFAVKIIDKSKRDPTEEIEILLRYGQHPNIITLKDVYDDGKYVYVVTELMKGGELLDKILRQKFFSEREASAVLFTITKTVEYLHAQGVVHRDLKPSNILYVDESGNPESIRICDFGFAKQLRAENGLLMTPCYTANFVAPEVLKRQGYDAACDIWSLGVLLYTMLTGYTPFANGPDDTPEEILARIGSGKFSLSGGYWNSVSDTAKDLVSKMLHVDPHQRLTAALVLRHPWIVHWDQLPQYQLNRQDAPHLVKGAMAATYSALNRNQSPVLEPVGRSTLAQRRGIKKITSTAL
# [12] = target: T2, D(4) dopamine receptor (Homo sapiens) (UniProt P21917); settings: Compound concentration 10.0 uM
# T2 sequence (whole entry): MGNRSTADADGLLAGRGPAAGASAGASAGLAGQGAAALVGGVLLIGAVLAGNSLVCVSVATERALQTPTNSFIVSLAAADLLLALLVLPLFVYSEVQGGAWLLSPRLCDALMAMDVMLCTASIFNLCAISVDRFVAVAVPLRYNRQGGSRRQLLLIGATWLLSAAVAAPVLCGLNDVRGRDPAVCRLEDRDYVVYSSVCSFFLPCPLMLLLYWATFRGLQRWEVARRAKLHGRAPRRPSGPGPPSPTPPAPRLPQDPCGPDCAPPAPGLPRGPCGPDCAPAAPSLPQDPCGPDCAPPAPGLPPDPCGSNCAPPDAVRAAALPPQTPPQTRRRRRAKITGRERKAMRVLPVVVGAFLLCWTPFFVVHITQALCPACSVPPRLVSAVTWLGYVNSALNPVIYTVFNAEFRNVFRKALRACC
# [13] = tested on: Receptor-type tyrosine-protein kinase FLT3 (Homo sapiens), P36888 [N841I]; settings: Compound concentration 1000.0 nM
# [14] = target: Tyrosine-protein kinase FRK (Homo sapiens) (UniProt P42685); settings: Compound concentration 1000.0 nM
# [15] = target: 1-phosphatidylinositol 3-phosphate 5-kinase (Homo sapiens) (UniProt Q9Y2I7); settings: Compound concentration 1000.0 nM
# [16] = target: T3, Muscarinic acetylcholine receptor M2 (Homo sapiens) (UniProt P08172); settings: Compound concentration 10.0 uM
# T3 sequence (whole entry): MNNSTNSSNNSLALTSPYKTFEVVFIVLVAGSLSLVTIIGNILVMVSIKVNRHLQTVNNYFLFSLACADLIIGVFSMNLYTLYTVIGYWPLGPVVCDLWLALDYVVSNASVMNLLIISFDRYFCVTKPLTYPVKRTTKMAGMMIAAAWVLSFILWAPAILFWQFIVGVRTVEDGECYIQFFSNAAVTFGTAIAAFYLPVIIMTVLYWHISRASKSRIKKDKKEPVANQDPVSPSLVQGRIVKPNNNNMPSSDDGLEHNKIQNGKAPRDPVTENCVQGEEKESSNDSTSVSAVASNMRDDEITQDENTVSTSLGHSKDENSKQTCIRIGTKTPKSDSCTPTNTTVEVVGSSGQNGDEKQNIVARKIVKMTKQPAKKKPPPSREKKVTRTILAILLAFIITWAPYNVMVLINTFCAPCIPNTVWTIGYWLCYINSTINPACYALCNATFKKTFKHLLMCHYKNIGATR
# [17] = tested on: Tyrosine-protein kinase ABL1 (Homo sapiens), P00519 [F317I]; settings: Compound concentration 1000.0 nM
# [18] = target: Casein kinase II subunit alpha' (Homo sapiens) (UniProt P19784); settings: Compound concentration 1000.0 nM
# Casein kinase II subunit alpha' (Homo sapiens), sequence (P19784 whole entry, looked up): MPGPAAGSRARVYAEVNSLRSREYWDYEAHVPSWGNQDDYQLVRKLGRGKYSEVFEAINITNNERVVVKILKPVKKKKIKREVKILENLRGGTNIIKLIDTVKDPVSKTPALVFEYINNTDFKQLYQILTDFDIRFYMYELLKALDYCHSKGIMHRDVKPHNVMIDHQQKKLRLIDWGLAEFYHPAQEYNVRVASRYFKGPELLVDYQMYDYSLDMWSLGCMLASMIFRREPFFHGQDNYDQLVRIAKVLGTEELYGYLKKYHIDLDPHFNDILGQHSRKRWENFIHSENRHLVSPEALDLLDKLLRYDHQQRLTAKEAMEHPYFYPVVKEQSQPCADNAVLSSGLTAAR
# [19] = target: Tyrosine-protein kinase JAK1 (Homo sapiens) (UniProt P23458); settings: Compound concentration 1000.0 nM
# Tyrosine-protein kinase JAK1 (Homo sapiens), sequence (P23458 whole entry): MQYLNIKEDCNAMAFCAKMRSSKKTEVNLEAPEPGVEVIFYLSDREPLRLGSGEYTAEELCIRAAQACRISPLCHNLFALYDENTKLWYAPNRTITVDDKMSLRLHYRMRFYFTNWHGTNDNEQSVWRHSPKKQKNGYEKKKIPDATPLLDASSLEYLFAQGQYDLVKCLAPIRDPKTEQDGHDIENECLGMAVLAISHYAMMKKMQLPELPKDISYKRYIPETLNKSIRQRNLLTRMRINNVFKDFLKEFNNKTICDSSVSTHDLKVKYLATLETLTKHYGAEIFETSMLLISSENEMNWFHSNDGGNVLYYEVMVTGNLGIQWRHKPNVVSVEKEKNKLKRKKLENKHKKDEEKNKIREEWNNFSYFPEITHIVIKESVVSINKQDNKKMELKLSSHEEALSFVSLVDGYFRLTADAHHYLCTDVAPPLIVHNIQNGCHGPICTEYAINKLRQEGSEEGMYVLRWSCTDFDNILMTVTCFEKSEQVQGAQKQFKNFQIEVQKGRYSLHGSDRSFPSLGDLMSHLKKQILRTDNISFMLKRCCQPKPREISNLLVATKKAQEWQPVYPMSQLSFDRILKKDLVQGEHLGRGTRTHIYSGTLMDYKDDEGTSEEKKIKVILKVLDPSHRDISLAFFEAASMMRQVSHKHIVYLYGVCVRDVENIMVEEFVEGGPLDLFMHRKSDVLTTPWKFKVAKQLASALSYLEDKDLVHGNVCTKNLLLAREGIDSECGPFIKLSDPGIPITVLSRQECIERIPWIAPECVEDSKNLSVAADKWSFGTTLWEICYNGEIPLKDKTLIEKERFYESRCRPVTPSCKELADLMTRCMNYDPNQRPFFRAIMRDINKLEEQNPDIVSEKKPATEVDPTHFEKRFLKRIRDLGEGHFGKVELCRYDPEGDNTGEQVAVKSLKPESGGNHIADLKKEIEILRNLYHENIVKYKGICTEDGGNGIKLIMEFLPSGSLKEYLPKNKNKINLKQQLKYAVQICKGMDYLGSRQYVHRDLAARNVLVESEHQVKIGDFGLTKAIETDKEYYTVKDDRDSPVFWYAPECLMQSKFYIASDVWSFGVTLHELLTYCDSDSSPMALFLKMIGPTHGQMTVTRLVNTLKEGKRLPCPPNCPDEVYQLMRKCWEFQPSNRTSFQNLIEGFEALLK
# [20] = target: Insulin receptor (Homo sapiens) (UniProt P06213); settings: Compound concentration 1000.0 nM
# [21] = target: Serine/threonine-protein kinase N1 (Homo sapiens) (UniProt Q16512); settings: Compound concentration 1000.0 nM
# Serine/threonine-protein kinase N1 (Homo sapiens), sequence (Q16512 2-942 limits assumed): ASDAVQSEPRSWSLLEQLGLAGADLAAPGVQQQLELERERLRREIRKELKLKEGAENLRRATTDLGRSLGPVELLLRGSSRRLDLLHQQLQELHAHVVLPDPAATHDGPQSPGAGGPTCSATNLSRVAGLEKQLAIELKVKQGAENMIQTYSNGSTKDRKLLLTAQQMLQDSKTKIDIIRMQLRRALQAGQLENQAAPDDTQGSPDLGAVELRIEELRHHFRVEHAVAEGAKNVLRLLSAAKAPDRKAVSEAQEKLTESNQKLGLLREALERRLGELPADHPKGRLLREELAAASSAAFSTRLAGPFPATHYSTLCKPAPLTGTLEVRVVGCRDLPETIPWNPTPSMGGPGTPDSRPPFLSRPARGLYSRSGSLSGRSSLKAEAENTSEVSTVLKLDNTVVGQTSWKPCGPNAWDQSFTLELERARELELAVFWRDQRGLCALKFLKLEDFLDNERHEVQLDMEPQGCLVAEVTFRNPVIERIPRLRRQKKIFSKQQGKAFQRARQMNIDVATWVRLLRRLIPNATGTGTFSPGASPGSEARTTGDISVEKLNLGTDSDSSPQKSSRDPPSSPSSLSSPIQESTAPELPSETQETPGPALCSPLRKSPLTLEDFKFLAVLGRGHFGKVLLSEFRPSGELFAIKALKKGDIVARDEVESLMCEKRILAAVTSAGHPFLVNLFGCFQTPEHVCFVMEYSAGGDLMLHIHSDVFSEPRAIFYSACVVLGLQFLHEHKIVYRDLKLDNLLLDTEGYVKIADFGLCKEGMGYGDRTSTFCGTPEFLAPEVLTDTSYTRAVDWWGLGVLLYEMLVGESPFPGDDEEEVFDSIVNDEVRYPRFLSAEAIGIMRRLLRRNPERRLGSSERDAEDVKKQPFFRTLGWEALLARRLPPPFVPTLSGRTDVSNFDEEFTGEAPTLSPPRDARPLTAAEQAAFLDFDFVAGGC
# [22] = target: T4, Muscarinic acetylcholine receptor M4 (Homo sapiens) (UniProt P08173); settings: Compound concentration 10.0 uM
# T4 sequence (whole entry): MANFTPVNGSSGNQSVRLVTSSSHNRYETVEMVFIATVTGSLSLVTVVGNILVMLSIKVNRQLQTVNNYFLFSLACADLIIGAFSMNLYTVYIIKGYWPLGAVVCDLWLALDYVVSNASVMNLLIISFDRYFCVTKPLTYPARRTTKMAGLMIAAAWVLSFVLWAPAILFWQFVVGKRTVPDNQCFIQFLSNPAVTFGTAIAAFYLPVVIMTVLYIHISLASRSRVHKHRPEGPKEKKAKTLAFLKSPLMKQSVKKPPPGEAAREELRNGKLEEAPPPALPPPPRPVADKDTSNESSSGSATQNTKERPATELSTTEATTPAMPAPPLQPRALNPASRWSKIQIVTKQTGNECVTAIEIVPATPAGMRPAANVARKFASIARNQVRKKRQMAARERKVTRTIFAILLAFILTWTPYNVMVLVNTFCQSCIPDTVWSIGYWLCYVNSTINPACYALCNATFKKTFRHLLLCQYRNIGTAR
# Serine/threonine-protein kinase PAK 3 (Homo sapiens), sequence (O75914 whole entry, looked up, the tested form may be a part): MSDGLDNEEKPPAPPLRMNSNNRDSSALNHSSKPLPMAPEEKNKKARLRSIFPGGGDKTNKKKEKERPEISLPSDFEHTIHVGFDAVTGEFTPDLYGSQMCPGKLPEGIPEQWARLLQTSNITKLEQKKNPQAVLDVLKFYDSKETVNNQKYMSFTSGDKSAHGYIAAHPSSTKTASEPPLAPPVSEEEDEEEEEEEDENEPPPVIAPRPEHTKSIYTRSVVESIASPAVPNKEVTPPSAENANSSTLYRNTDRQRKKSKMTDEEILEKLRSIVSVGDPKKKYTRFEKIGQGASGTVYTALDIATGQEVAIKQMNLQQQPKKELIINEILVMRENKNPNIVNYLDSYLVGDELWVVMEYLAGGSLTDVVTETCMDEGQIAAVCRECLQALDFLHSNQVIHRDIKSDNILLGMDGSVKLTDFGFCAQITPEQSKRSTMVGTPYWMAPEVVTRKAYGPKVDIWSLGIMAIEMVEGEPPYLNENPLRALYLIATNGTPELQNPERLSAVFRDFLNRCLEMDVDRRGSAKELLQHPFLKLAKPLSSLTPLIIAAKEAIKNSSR
Compound,residual activity [1] [%],residual activity [2] [%],residual activity [3] [%],inhibition [4] [%],residual activity [5] [%],inhibition [6] [%],residual activity [7] [%],residual activity [8] [%],residual activity [9] [%],residual activity [10] [%],residual activity [11] [%],inhibition [12] [%],residual activity [13] [%],residual activity [14] [%],residual activity [15] [%],inhibition [16] [%],residual activity [17] [%],residual activity [18] [%],residual activity [19] [%],residual activity [20] [%],further results
CN(C)C(=O)Cn1cc(-c2nc(C3(c4ccc(-c5cnc(N)nc5)cc4)CC3)no2)cn1 [BI 0153],100,82,86,5.35,100,-2.44,75,100,89,62,85,1.18,100,100,98,-0.311,76,100,100,90,residual activity [21]: 84%; inhibition [22]: 5.81%
CN(C)C(=O)Cn1cc(-c2nc([C@@](C)(c3ccc(-c4cnc(N)nc4)cc3)C3CC3)no2)cn1 [BI 665915],100,87,90,6.28,96,-5.97,77,100,89,94,100,1.48,83,90,68,-7.53,96,90,33,89,residual activity [21]: 99%; inhibition [22]: 10.3%
